The values below are quoted from earlier work in patent US5807732A, “GDP-L-fucose: β-D-galactoside 2-α-L-fucosyltransferases, DNA sequences encoding the same, method for producing the same and a method of genotyping a person” (priority 1995, dated 1998).

Several values for one entry are separate records, joined by “and”; a condition that tells them apart may be missing. Equal values may be shown once. Read-outs that look alike come from different tables or passages of the source.

The subject of data set [1] is Secretor α(1,2)fucosyltransferase. As to conditions: read-out: Apparent Km.
The target of data set [2] is T1, H α(1,2)fucosyltransferase (Homo sapiens, UniProt P19526).
T1 sequence (P19526 1-365): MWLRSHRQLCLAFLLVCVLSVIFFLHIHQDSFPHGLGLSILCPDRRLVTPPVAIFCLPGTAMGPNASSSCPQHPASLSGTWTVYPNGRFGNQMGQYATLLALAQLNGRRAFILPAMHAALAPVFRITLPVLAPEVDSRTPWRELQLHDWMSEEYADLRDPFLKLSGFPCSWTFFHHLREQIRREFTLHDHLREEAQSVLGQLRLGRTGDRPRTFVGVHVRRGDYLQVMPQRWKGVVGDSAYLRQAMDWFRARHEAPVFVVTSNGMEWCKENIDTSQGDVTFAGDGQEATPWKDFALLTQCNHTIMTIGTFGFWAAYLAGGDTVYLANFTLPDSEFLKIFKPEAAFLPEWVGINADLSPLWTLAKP
To be noted: enzyme H; literature values; read-out: Apparent Km.

In data set [3] the test system is transfected COS-7 cells. To be noted: expressed in COS-7 cells.
Where [4] appears, read: enzyme Secretor, literature values.

The Km is the substrate concentration at which the rate is half of its maximum. In the case of `CC(=O)N[C@H]1[C@H](O[C@H]2[C@@H](O)[C@@H](CO)O[C@@H](O[C@H]3[C@H](O)[C@@H](O)C(O)O[C@@H]3CO)[C@@H]2O)O[C@H](CO)[C@@H](O)[C@@H]1O[C@@H]1O[C@H](CO)[C@H](O)[C@H](O)[C@H]1O` (stereo partly drawn) [lacto-N-tetraose], the Km in data set [1] (setting [4]) is 1600 µM.

Consider `C[C@@H]1O[C@H](OP(=O)(O)OP(=O)(O)OC[C@H]2O[C@@H](n3cnc4c(=O)[nH]c(N)nc43)[C@H](O)[C@@H]2O)[C@@H](O)[C@H](O)[C@@H]1O` [GDP-fucose], for which the Km in data set [1] (setting [4]) was 108 µM and 123 µM.

On to `CC(=O)N[C@H]1C(O)O[C@H](CO)[C@@H](O)[C@@H]1O[C@@H]1O[C@H](CO)[C@H](O)[C@H](O)[C@H]1O` (stereo partly drawn) [lacto-N-biose I], for which the values for the Km in data set [2] and in data set [1] (setting [4]) were 2000 µM and 1000 µM, respectively.

`COC1O[C@H](CO)[C@@H](O)[C@H](O[C@@H]2O[C@H](CO)[C@H](O)[C@H](O)[C@H]2O)[C@H]1NC(C)=O` (stereo partly drawn) [lacto-N-biose I (--O--Me)]: the Km in data set [2] is 3500 µM; in data set [1] (setting [4]), 1400 µM.

As for `OC[C@H]1O[C@@H](Oc2ccccc2)[C@H](O)[C@@H](O)[C@H]1O` [phenyl-β-D-galactoside], the values for the Km in data set [1] (human Secretor α(1,2)fucosyltransferase partially purified from human milk) and in data set [1] (human Secretor α(1,2)fucosyltransferase purified from human serum) were 15100 µM and 11400 µM, respectively.

B1: H blood group cDNA-encoded α(1,2)fucosyltransferase: human H blood group (FUT1) α(1,2)fucosyltransferase expressed from cDNA in COS-7 cells (protein, UniProt P19526 1-365, looked up)
Galactoside …: T1 sequence (P19526 1-365)
With B1, the “distribution of α(1,2)fucosyltransferase activity between cells and media” value in data set [3] is “largely cell-associated”.
